Laboratory results: patent US10342867B2 (priority 2014, dated 2019)

Experiments:
[1] = rabbit, in vivo
[2] = rabbit, in vivo; remark: listed apart in the source
[3] = rabbit, in vivo; remark: listed apart in the source
[4] = rabbit, in vivo; remark: listed apart in the source
[5] = rabbit, in vivo; remark: listed apart in the source

| Substance | Reactogenicity 1 week post immunization 2, GMS [1] | Reactogenicity 1 week post immunization 2, antilog [1] | Reactogenicity 4 weeks post immunization 1, GMS [1] | Reactogenicity 4 weeks post immunization 1, antilog [1] | Body temperature one day after the first immunization, Mean [2] | Body temperature one day after the second immunization, Mean [2] | Body weight gain one week post immunization 1, mean [3] | Body weight gain two weeks post immunization 1, mean [3] | Number of animals demonstrating a detectable adverse local reaction four weeks after the first immunization [4] | Number of animals demonstrating a detectable adverse local reaction one week after the second immunization [4] | Increase in body temperature one day post immunization 1, mean [5] | Increase in body temperature two days post immunization 1, mean [5] | increases in body temperature in comparison to the corresponding POLY counterpart [5] |
| --- | --- | --- | --- | --- | --- | --- | --- | --- | --- | --- | --- | --- | --- |
| Monosulphate heptadecylmaltose [M10-MONO] | 1.34 | 22 | 1.26 | 18 | 38.9 °C | 39.2 °C | 35 g | 49 g | 0/6 | 0/6 | 0.5 °C | 0.1 °C | lower increases |
| Monosulphate heptadodecylmaltose [M12-MONO] |  |  |  |  | 39.0 °C | 39.2 °C |  |  | 0/6 | 0/6 |  |  |  |
| Monosulphate tetradodecyl galactose [G12-MONO] |  |  |  |  | 39.1 °C | 39.3 °C |  |  | 1/6 (discoloration, loss | 1/6 (granuloma) |  |  |  |
| maltose decanoic acid polysulphate ester [M10-POLY] | 3.37 |  | 1.73 | 53 |  |  | 38 g | 53 g |  |  | 0.7 °C | 0.5 °C |  |
